Assays:
[1] = test system: cell lines from hematological malignancies; assay: Cell Titer Glo proliferation, Compound 1 in combination with second active agents; format: cell-based; conditions: very sensitive cell lines such as JJN-3, SU-DHL2 or SU-DHL10; combined with Compound 1
Experimental: Cell Lines/Cells: Activated B-Cell (ABC) cell lines: TMD-8, SU-DHL-2, OCI-Ly10, RIVA, U2932; and Germinal Center B-cell (GCB) cell lines: SU-DHL10, Pfeiffer, WSU-DLCL2, SU-DHL4, DB; myeloma cell lines: H929, JJN3 and SK-MM1; acute myeloid leukemia cell line: HNT-34; acute lymphocytic leukemia cell line: Karpas-231; other lymphoma cell lines: Daudi, Karpas-299, HuT-102, L-428.
Alternatively, combination compound solutions were serially diluted from 5 μM starting concentration and serially diluted 6-fold for a 6-point dilution curve. […] Cells were added to each well and cultured for 3 days. […] For some other epigenetic agents (EPZ5676, C646, OICR-9429, ACY-241, GSK3484862, Compound C, UNC 0631, GSK3326595, LP99, A-196, CARM1 EZM2302) cells were cultured for 5 days due to their mechanism of action.
Plates were either made at a concentration of 10 μM or 1 μM diluted 3-fold for a 10-point dilution curve, with a final DMSO concentration of 0.2%. All cell line solutions were diluted to a concentration of 100,000 cells/mL and added to each well in a volume of 50 μL, with the exception of SU-DHL-6 solution, which was diluted to 25,000 cells/mL. At the end of the treatment period cells were lysed with Cell Titer Glo (CTG) reagents following manufacture recommendation. Luminescent signal was read using an Envision and data was normalized by DMSO for data analysis.
Data Analysis: The combination effect was analyzed by combining results from Highest Single Agent (HSA) and Bliss Independency methods. See, e.g., Foucquier J, Guedj M., Analysis of drug combinations: current methodological landscape. Pharmacol Res Perspect. 2015; 3(3):e00149. doi:10.1002/prp2.149.
Combined results of HSA and Bliss scores were used to define synergistic and additive effect of the combinations.

[2] = test system: WSU-DLCL2 DLBCL xenograft tumors; assay: WSU-DLCL2 (DLBCL) xenograft model, Compound 1 alone and with tazemetostat; format: in vivo, female SCID mice; conditions: single agent tazemetostat 200 mg/kg oral BID, three weeks
Experimental: Anti-tumor activity of Compound 1 alone and in combination with tazemetostat was studied in WSU-DLCL2 (DLBCL) xenograft model. Compound 1 (1 mg/kg) was administered once daily for 5 consecutive days followed by 2 days off (5 D on/2 D off) and tazemetostat (200 mg/kg) was administered twice daily (BID).
(§1) Methods: Xenograft study was conducted with female SCID mice bearing WSU-DLCL2 DLBCL xenograft tumors. Female SCID mice were inoculated subcutaneously with WSU-DLCL2 cells in the flank region above the right hind leg. Following inoculation of animals, the tumors were allowed to grow to approximately 200 mm^3 prior to randomization. On day 14 following tumor cell inoculation, the mice bearing WSU-DLCL2 tumors ranging between 150 and 250 mm^3 were pooled together and randomized into various treatment groups. Compound 1 was formulated in 0.5% Methyl Cellulose, 0.25% Tween 80 and 50 mM Citrate pH 3 in water. Tazemetostat was formulated in CMC-Tween. Compound 1 (1 mg/kg) was orally administered with three cycles of once daily for 5 consecutive days followed by 2 days off starting from day 14 after tumor cell inoculation. Tazemetostat 200 mg/kg) was orally administered twice day (BID) for three weeks. In combination group the animals received Compound 1 (1 mg/kg/5 D on/2 D off) and tazemetostat (200 mg/kg, BID) simultaneously for three weeks starting from day 14 after tumor cell inoculation. Tumors were measured twice a week using calipers and tumor volumes were calculated using the formula of W^2×L/2. Statistical analysis was performed using a one-way or 2-way analysis of variance (ANOVA). Synergy calculations were performed using fractional product method.

[3] = test system: DB DLBCL xenograft tumors; assay: DB (DLBCL) xenograft model, Compound 1 alone and with tazemetostat; format: in vivo, female SCID mice; conditions: single agent tazemetostat 200 mg/kg oral BID, three weeks
Experimental: Anti-tumor activity of Compound 1 alone and in combination with tazemetostat was studied in DB (DLBCL) xenograft model. Compound 1 (3, 10 or 30 mg/kg) was administered once daily for 5 consecutive days followed by 2 days off (5 D on/2 D off) and tazemetostat (200 mg/kg) was administered twice daily (BID).
as §1, with “bearing DB” for “bearing WSU-DLCL2”, “with DB” for “with WSU-DLCL2”, “day 33” for “day 14”, “1 (3, 10 or 30” for “1 (1”, “Tazemetostat (200” for “Tazemetostat 200”, “1 (3, 10 or 30 mg/kg, 5” for “1 (1 mg/kg/5”

| SMILES | effect on proliferation of combination with Compound 1 (HSA and Bliss scores) [1] | also measured |
| --- | --- | --- |
| COc1cc(Nc2ncc3c(n2)-c2ccc(Cl)cc2C(c2c(F)cccc2OC)=NC3)ccc1C(=O)O [alisertib, 4-((9-chloro-7-(2-fluoro-6-methoxyphenyl)-5H-benzo[c]pyrimido[4,5-e]azepin-2-yl)amino)-2-methoxybenzoic acid] | synergistic effects |  |
| Cc1sc2c(c1C)C(c1ccc(Cl)cc1)=N[C@@H](CC(=O)Nc1ccc(O)cc1)c1nnc(C)n1-2 [birabresib, (S)-2-(4-(4-chlorophenyl)-2,3,9-trimethyl-6H-thieno[3,2-f][1,2,4]triazolo[4,3-a][1,4]diazepin-6-yl)-N-(4-hydroxyphenyl)acetamide] | synergistic effects |  |
| CO[C@H]1C[C@@H]2CC[C@@H](C)[C@@](O)(O2)C(=O)C(=O)N2CCCC[C@H]2C(=O)O[C@H]([C@H](C)C[C@@H]2CC[C@@H](OCCO)[C@H](OC)C2)CC(=O)[C@H](C)/C=C(\C)[C@@H](O)[C@@H](OC)C(=O)[C@H](C)C[C@H](C)/C=C/C=C/C=C/1C [everolimus, 40-O-(2-hydroxyethyl)-rapamycin] | synergistic effects |  |
| Cc1cnc(Nc2ccc(OCCN3CCCC3)cc2)nc1Nc1cccc(S(=O)(=O)NC(C)(C)C)c1 [fedratinib, N-tert-butyl-3-[(5-methyl-2-{4-[2-(pyrrolidin-1-yl)ethoxy]anilino}pyrimidin-4-yl)amino]benzenesulfonamide] | synergistic effects |  |
| Cc1[nH]c2ccccc2c1CCNCc1ccc(/C=C/C(=O)NO)cc1 [panobinostat, (2E)-N-hydroxy-3-[4-({[2-(2-methyl-1H-indol-3-yl)ethyl]amino}methyl)phenyl]acrylamide] | synergistic effects |  |
| CCN(c1cc(-c2ccc(CN3CCOCC3)cc2)cc(C(=O)NCc2c(C)cc(C)[nH]c2=O)c1C)C1CCOCC1 [tazemetostat, N-[(1,2-dihydro-4,6-dimethyl-2-oxo-3-pyridinyl)methyl]-5-[ethyl(tetrahydro-2H-pyran-4-yl)amino]-4-methyl-4′-(4-morpholinylmethyl)-[1,1′-biphenyl]-3-carboxamide, reference compound] |  | inhibition of tumor growth [2]: −50.5%; inhibition of tumor growth (TVR) [3]: 64.5%; inhibition of tumor growth (TVR) ([3]; listed as Tazemetostat): −45.9% |
| CC[C@]1(O)C[C@H]2CN(CCc3c([nH]c4ccccc34)[C@@](C(=O)OC)(c3cc4c(cc3OC)N(C=O)[C@H]3[C@@](O)(C(=O)OC)[C@H](OC(C)=O)[C@]5(CC)C=CCN6CC[C@]43[C@@H]65)C2)C1 [vincristine] | synergistic effects |  |

Source: patent publication US12396995B2, “Substituted 4-aminoisoindoline-1,3-dione compounds and second active agents for combined use” (Celgene Corporation, priority 2019, dated 2025)
